For data set [1], the target named is HIV-1 integrase (IN) (Human immunodeficiency virus type 1 group M subtype B, UniProt P12497). In words: HTRF-based LEDGF/p75 independent 3′-processing assay. It counts as biochemical.
The test system of data set [2] is HEK293T cells. Particulars: without viral infection (Fig. 4B).

Molecules are shown by their SMILES.

As to `O=C(O)c1cc(N(Cc2ccccc2)Cc2ccccc2)ccc1O` [Compound 1, 5-(Dibenzylamino)-2-hydroxybenzoic acid], in data set [1], the “inhibition of IN 3′processing activity in the absence of LEDGF/p75 (in words)” value (“inhibition of IN 3′processing activity” for short) was “weak inhibitions”. For the molecule `O=C(O)c1cc(N(Cc2ccccc2Cl)Cc2ccccc2Cl)ccc1O` [Compound 2, 5-[Bis(2-chlorobenzyl)amino]-2-hydroxybenzoic acid], the “cellular toxicity in words” value in data set [2] is given as “significant cellular toxicity”. Further, the “inhibition of IN 3′processing activity” value in data set [1] is recorded as “weak inhibitions”. For the molecule `O=C(O)c1cc(N(Cc2ccccc2F)Cc2ccccc2F)ccc1O` [Compound 5, 5-[Bis(2-fluorobenzyl)amino]-2-hydroxybenzoic acid], in data set [1], the “inhibition of IN 3′processing activity” value is “weak inhibitions”.

As for `O=C(O)c1cc(N(Cc2cccc(F)c2)Cc2cccc(F)c2)ccc1O` [Compound 6, 5-[Bis(3-fluorobenzyl)amino]-2-hydroxybenzoic acid], the “inhibition of IN 3′processing activity” value in data set [1] was “weak inhibitions”.

(Values after paper PMC5283093 (European journal of medicinal chemistry, 2016).)
